Source: US20020058048A1, “TOPICAL CAPSAICIN PREPARATION” (priority 1998, published 2002)
Several values for one entry are separate records, joined by “and”; a condition that tells them apart may be missing. Equal entries are not always repeated.

How the values were obtained:
[1] = system: cornea of rats; assay: Eye-wiping reflex caused by capsaicin applied to the cornea (eye-wiping method of Jancso); type: in vivo, rat; conditions: for Number of wiping, Second: challenge with 0.1% capsaicin solution without surfactant 2 hours after pretreatment with 0.1% capsaicin
Excerpt: 2. The effect of polyoxyethylene (60) hydrogenated castor oil on the eye-wiping reflex caused by capsaicin and the desensitization to chemical stimuli was studied according to the eye-wiping method reported by Jancso N. et al., in “Direct evidence for neurogenic inflammation and its prevention by denervation and by pretreatment with capsaicin”, Br. J. Phamac. Chemother. 31: 138-151, 1967.
When one drop of 0.1% capsaicin solution was applied to the cornea of rats, the animal immediately began to wipe the cornea with front paws and continued the wiping for about 1 minute.
See, Table 2. […] See, Table 3.
4. The effect of various surfactants on the desensitization of sensory nerves by 0.1% capsaicin was evaluated using the procedure of Test 2.

[2] = system: hind-limb of rats; assay: Withdrawal latency to thermal stimuli (42° C. water bath) of hind-limb in rats during sensitization by capsaicin; type: in vivo, rat; conditions: 0.1% capsaicin solution; for Withdrawal latency time, One hour after appln.: 42° C. water bath; for Withdrawal latency time, Before appln.: baseline before application
Procedure: 1. 0.1% capsaicin solutions containing varying amount of polyoxyethylene (60) hydrogenated castor oil were prepared by dissolving 0.1 g of capsaicin and 0, 3, 9 or 18g of the surfactant in 26.4 ml of ethanol and then diluting with distilled water q.s. to make a total volume of 100 ml.
Each of 0.1% capsaicin solution thus prepared was applied to the hind-limb of rats. One hour after the application, the limb was placed in a water bath warmed at 42° C. and the length of time (in seconds) elapsed until when the rat withdrew the treated limb from the water bath was determined. […]

[3] = polyoxyethylene (60) hydrogenated castor oil 0%
[4] = polyoxyethylene (60) hydrogenated castor oil 3%
[5] = polyoxyethylene (60) hydrogenated castor oil 9%
[6] = polyoxyethylene (60) hydrogenated castor oil 18%

COc1cc(CNC(=O)CCCC/C=C/C(C)C)ccc1O [capsaicin]
Number of wiping, Second ([1]; surfactant 0%): significantly reduced and 9.7 ± 1.6 | Number of wiping, Second ([1]; surfactant 3%): significantly reduced and 11.5 ± 0.9 | Number of wiping, Second ([1]; surfactant 9%): significantly reduced and 13 ± 0.7 | Number of wiping, Second ([1]; surfactant 18%): significantly reduced and 11.7 ± 0.6 | Duration of wiping of the cornea with front paws ([1]; one drop applied to the cornea of rats): about 1 minute | Number of wiping, First ([1]; pretreatment drop of 0.1% capsaicin solution with surfactant 0%): 21.5 ± 1.6 | Number of wiping, First ([1]; pretreatment drop of 0.1% capsaicin solution with surfactant 3%): not virtually affected and 24 ± 2.1 | Number of wiping, First ([1]; pretreatment drop of 0.1% capsaicin solution with surfactant 9%): not virtually affected and 23.5 ± 1.1 | Number of wiping, First ([1]; pretreatment drop of 0.1% capsaicin solution with surfactant 18%): not virtually affected and 22 ± 1.4 | Withdrawal latency time, One hour after appln. [2, 3]: remarkably shortened and 2.45 ± 0.32 sec. | Withdrawal latency time, Before appln. [2, 3]: 30 ± 0 s | Withdrawal latency time, One hour after appln. [2, 4]: slightly shortened and 20.29 ± 4.18 sec. | Withdrawal latency time, Before appln. [2, 4]: 30 ± 0 s | Withdrawal latency time, One hour after appln. [2, 5]: not affected significantly and 30 ± 0 sec. | Withdrawal latency time, Before appln. [2, 5]: 30 ± 0 s | Withdrawal latency time, One hour after appln. [2, 6]: not affected significantly and 27.28 ± 2.35 sec. | Withdrawal latency time, Before appln. [2, 6]: 30 ± 0 s
